Each structure is given as a SMILES string. Where “and” joins values, the source holds several entries; their conditions need not be identical. Equal values may be shown once.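 Dose response: 5 concentrations. Exposure: 48 h. Format: 96-well plates. Endpoint: linear interpolation; highest concentration if not reached. GI50 is the concentration that inhibits growth by half. TGI: total growth inhibition.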 *1 amine or outer side, *2 acyl side, *3 side chain or, on linkers, in order; H or OH if unused. Where a SMILES comes first, the peptide text is derived from it. Bridges are numbered along the chain shown (N, C = ends). [ ]: non-standard residue; d: D form. ξ: configuration not given here. X4 = CCC(C)C(N[*:1])C(O)CC(=O)O[C@H](C(=O)C(C)C(=O)[*:2])C(C)C; NMeY = CN[C@@H](Cc1ccc(O)cc1)C(=O)O; ξNMeL = CNC(CC(C)C)C(=O)O; ξT = CC(O)C(N)C(=O)O

Consider 28 compounds from PubChem BioAssay (NCI).

Holding throughout (test): NCI anticancer screen, dose series, 48 h
In assay [1] the test system is A549 NSCLC.
Assay [2] deals with ACHN renal.
The subject of assay [3] is HCT-116 colon.
The test system of assay [4] is KM12 colon.
Assay [5] has as its system MDA-MB-435.
For assay [6], the system named is NCI-H460 lung.
The test system of assay [7] is NCI/ADR-RES ovarian.
For assay [8], the system named is OVCAR-5 ovarian.
The subject of assay [9] is UACC-62 melanoma.
For assay [10], the system named is UO-31 renal.

In the case of `O=c1[nH]nc(Cc2ccc(Cl)cc2)n1O`, the TGI in assay [1], in assay [2], in assay [3], in assay [4], in assay [5] and in assay [6] was more than 100 µM in each case. Moreover, the TGI in assay [7], in assay [8], in assay [9] and in assay [10] was more than 100 µM in each case.

`COc1ccc(-c2c(C#N)c(-c3ccccc3)n(NS(=O)(=O)c3ccccc3)c(=O)c2C#N)cc1`: the TGI in assay [1], in assay [2], in assay [3], in [4], in [5] and in assay [6] was more than 100 µM each time. The TGI in assay [7], in assay [8] and in [9] was more than 100 µM throughout.

For the compound `CCOP(=O)(OCC)C(Nc1ccc(F)cc1)c1cccc([N+](=O)[O-])c1` (stereo not given), the TGI in assay [1], in [2], in assay [3], in assay [4], in [5] and in assay [6] was more than 100 µM throughout. In addition, the TGI in assay [7], in assay [8], in assay [9] and in assay [10] was more than 100 µM each time.

As for `CN(C(=O)c1ccc(Cl)s1)C(=S)N(C)C(=O)c1ccc(Cl)s1`, the TGI in assay [1], in assay [2], in [3], in assay [4], in [6] and in assay [7] was more than 10 µM in each case. Also, the TGI in [8], in [9] and in assay [10] was more than 10 µM throughout.

Take `C=C1C[C@]23C[C@@]1(O)CC[C@H]2[C@@]12C=C[C@H](O)[C@@](C)(C(=O)O1)[C@H]2[C@@H]3C(=O)O`: the TGI in assay [1], in assay [3], in assay [4], in assay [6], in assay [8] and in assay [9] was more than 100 µM each time. The TGI in [10] is more than 100 µM.

Regarding `CC(C)n1c(=O)n(-c2ccccc2)n(C(C)(C)C)c1=O`, the TGI in assay [1], in [2], in [3], in assay [4], in [6] and in [7] was more than 100 µM in each case. For the same compound, the TGI in [8], in [9] and in assay [10] was more than 100 µM each time.

Regarding `CSC1SCC2C(=O)N(C)C3(CC3C)C(=O)OCC(NC(=O)c3nc4ccccc4cc3O)C(=O)NC(C)C(=O)N(C)C1C(=O)N(C)C1(CC1C)C(=O)OCC(NC(=O)c1nc3ccccc3cc1O)C(=O)NC(C)C(=O)N2C` (stereo not given), the TGI is 20.1 µM in assay [1]; more than 100 µM in assay [2]; 16.4 µM in assay [3]; less than 0.0001 µM in assay [4]; less than 0.0001 µM in [5]; 0.875 µM in assay [6]. Further, the figures for the TGI in [7], in assay [9] and in [10] were 72.7 µM, less than 0.0001 µM and 0.0093 µM, respectively. Moreover, in assay [7], the GI50 was 0.124 µM.

As for `NC(CCCCNC(=O)OCc1ccccc1)C(=O)NC(CCCCNC(=O)OCc1ccccc1)C(=O)ON1C(=O)CCC1=O` (stereo not given), the TGI in [1], in assay [2], in [3], in [4], in [6] and in assay [8] was more than 100 µM in each case. In addition, the TGI in assay [9] and in assay [10] was more than 100 µM in each case.

For `COc1cc(C2C3=C(COC3=O)OC(C)(C)Oc3cc4c(cc32)OCO4)cc(OC)c1OC` (stereo not given), the TGI in assay [1] was more than 100 µM; in assay [2] it was more than 100 µM; in assay [3], 6.65 µM; in assay [4], 14.8 µM; in assay [5] it was 0.5 µM; in assay [6] it was more than 100 µM. For the same compound, the results for the TGI in assay [8], in [9] and in assay [10] were more than 100 µM, more than 20 µM and 5.86 µM, respectively.

`COS(=O)c1cc(Cl)cc(Cl)c1O` (stereo not given): the TGI in assay [2], in assay [3], in assay [4], in [6], in [8] and in [9] was more than 100 µM throughout. The TGI in [10] is more than 100 µM.

Turning to `CSc1nncc(-c2cc3c(c(SC)n2)CCC3)n1`, the TGI in [1], in assay [2], in assay [3], in assay [4], in [5] and in assay [7] was more than 100 µM in each case. In addition, the TGI in assay [8], in assay [9] and in [10] was more than 100 µM each time.

Take `O=C1[C@@H]2Cc3c([nH]c4ccccc34)C(C3CCCCC3)N2C(=O)[C@@H]2CCCN12` (stereo not given in full): the TGI was more than 100 µM in [1]; more than 100 µM in [2]; 74.5 µM in assay [3]; 58.4 µM in [4]; more than 100 µM in assay [5]; 78.7 µM in assay [7]. Also, the TGI in [8] was more than 100 µM; in [9], 49 µM; in [10] it was more than 100 µM.

As for `CCOC(=O)C(C(=O)Cc1ccccc1)c1ccccc1` (stereo not given), the TGI in assay [1], in assay [2], in assay [3], in assay [4], in assay [6] and in assay [8] was more than 100 µM throughout. Moreover, the TGI in [9] and in [10] was more than 100 µM in each case.

As for `O=C1NC(N/N=C\c2ccccc2)=N/C1=C/c1ccc(Cl)cc1`, the TGI was 62.9 µM in assay [1]; 30 µM in assay [2]; 71.4 µM in assay [3]; 95.5 µM in assay [4]; more than 100 µM in assay [5]; 53.5 µM in assay [6]. In addition, the results for the TGI in assay [7], in assay [8] and in [10] were 56.6 µM, 94.1 µM and 36.2 µM, respectively.

With `COC(=O)c1cncc2c1CC1C3(C(=O)OC)C=NC(C4C(CO)=CCC43)C21C` (stereo not given), the TGI in assay [1], in assay [2], in [3], in assay [4], in assay [5] and in [6] was more than 100 µM each time. In addition, the TGI in assay [7], in assay [8] and in [10] was more than 100 µM throughout.

Take `O=C(NNC(=S)Nc1ccccc1)c1csc(NC(=S)NC2CCCCC2)n1`: the TGI in [1], in assay [2], in assay [3], in assay [4], in assay [5] and in [7] was more than 100 µM throughout. The TGI was more than 100 µM in assay [8], more than 100 µM in [9] and 79.6 µM in assay [10].

With `O=C(O)c1ccc(Nc2nc3cc(C(F)(F)F)ccc3nc2C(=O)O)cc1`, the TGI in [2], in assay [3], in [4], in [5], in assay [6] and in assay [7] was more than 100 µM each time. Besides, the TGI in assay [8] and in [10] was more than 100 µM throughout.

For the compound `O=C(c1ccco1)N(C(=S)OCc1ccccn1)c1ccccc1`, the TGI in assay [2], in [3], in assay [4], in [5], in assay [7] and in assay [8] was more than 100 µM throughout. Also, the TGI in [9] and in assay [10] was more than 100 µM each time.

For `O=C(N=Nc1ccccc1Br)NNc1ccccc1Br`, the TGI in assay [1], in assay [2], in [3], in [5], in assay [6] and in assay [8] was more than 100 µM each time. For the same compound, the TGI in [9] and in assay [10] was more than 100 µM each time.

As to `CCC(C)C1NC(=O)C(NC(=O)C(CC(C)C)N(C)C(=O)[C@@H]2CCCN2)C(C)OC(=O)[C@H](Cc2ccc(OC)cc2)N(C)C(=O)[C@@H]2CCCN2C(=O)[C@H](CC(C)C)NC(=O)C(C)C(=O)[C@H](C(C)C)OC(=O)CC1O` (stereo not given in full) (H-P[ξNMeL][ξT][X4]LP[NMeY](Me); ester 3-C), the TGI in assay [1] is 0.0246 µM and 0.0289 µM; in [2] it was 0.0352 µM and 0.156 µM; in assay [5], 0.0032 µM; in assay [7], 0.78 µM and 3.74 µM; in assay [8], 0.0794 µM; in assay [9], 0.00147 µM. The TGI in assay [10] is 0.118 µM and 0.444 µM. In addition, the GI50 in [7] was 0.233 µM; in assay [10], 0.0253 µM.

For `COC(OC)C(O)C1OC=CC1n1cnc2c(N)ncnc21` (stereo not given), the TGI in assay [2], in assay [3], in assay [4], in [5], in assay [6] and in [7] was more than 100 µM throughout. Besides, the TGI in [9] and in assay [10] was more than 100 µM each time.

On to `C/C=C/[C@H]1O[C@@](OC)([C@@H](C)[C@H](O)[C@H](C)[C@H]2OC(=O)/C(OC)=C/C(C)=C/[C@@H](C)[C@@H](O)[C@@H](C)[C@@H](O)[C@H](C)C/C(C)=C/C=C/[C@@H]2OC)CC(OC2CC(O)C(OC(N)=O)C(C)O2)[C@@H]1C` (stereo not given in full), for which the TGI is 14.8 µM in assay [1]; 8.27 µM in [2]; 0.197 µM in [3]; 12.7 µM in assay [4]; less than 0.01 µM in assay [5]; 4.17 µM in assay [6]. The TGI is 19.4 µM in assay [7], 17 µM in assay [8] and less than 0.01 µM in assay [10].

Take `CCOC(=O)c1sc2c(c1OC(=O)c1ccccc1)c(=O)n(-c1ccccc1)c(=S)n2-c1ccccc1`: the TGI is 64.2 µM in assay [1]; more than 100 µM in [2]; 74.8 µM in assay [3]; more than 100 µM in assay [4]; 51.7 µM in assay [5]; 41.5 µM in assay [6]. The TGI is 51 µM in [7], more than 100 µM in [8] and 52.3 µM in assay [9].

As for `COC(=O)C1(C(=O)OC)N=C(C)OC1C(C)C` (stereo not given), the TGI in assay [1], in assay [2], in assay [3], in assay [4], in assay [5] and in assay [6] was more than 100 µM in each case. In addition, the TGI in [7], in [8] and in assay [10] was more than 100 µM throughout.

Turning to `Nc1nc2c(ncn2C2C=CC(CO)O2)c(=O)[nH]1` (stereo not given), the TGI in assay [3], in [4], in assay [5], in [6], in assay [7] and in assay [8] was more than 100 µM in each case. For the same compound, in [10], the TGI is more than 100 µM.

Take `O=[As](O)(O)c1cc(N=Nc2ccc(-c3ccc(N=Nc4cc([As](=O)(O)O)c(O)cc4O)cc3)cc2)c(O)cc1O`: the TGI in [1] is more than 100 µM; in [2], more than 100 µM; in [3], more than 100 µM; in assay [4], more than 100 µM; in assay [6] it was more than 100 µM; in [8], 97.6 µM. For the same compound, the TGI in [9] and in [10] was more than 100 µM each time.

For `COC1/C=C/C(C)C(C(C)C(OC)C(C)CCC(=O)C(C)C(CCC(=O)O)OC)OC(=O)/C=C/C=C(\C)CC(OC)CC2=CC(=O)O[C@@H](C(C)C(OC)CC(OC)/C=C/C(C)C(OC)C1)[C@H]2O` (stereo not given in full), the TGI in assay [1] is more than 5 µM; in [2] it was 2.93 µM; in [3], more than 5 µM; in [4], more than 5 µM; in assay [5] it was more than 5 µM; in assay [6] it was more than 5 µM. In addition, the TGI in [7] is more than 5 µM; in assay [8] it was more than 5 µM; in assay [9] it was more than 4.31 µM.

Regarding `COc1c/c(=C2/C=c3ccccc3=N2)[nH]/c1=C/c1[nH]c(C)cc1C`, in [1], the GI50 was 0.219 µM and the TGI was more than 100 µM.
